Assay in all cases: DTP human tumour cell line panel, 48 h
For experiment [1], the system named is ACHN.
The subject of experiment [2] is BT-549.
Experiment [3] deals with CAKI-1.
Experiment [4] deals with CCRF-CEM.
The test system of experiment [5] is COLO 205.
The subject of experiment [6] is DU-145.
Experiment [7] deals with HCC 2998.
For experiment [8], the system named is HCT-116.
For experiment [9], the system named is HOP-62.
Experiment [10] concerns Hs-578T.
For experiment [11], the system named is LOX IMVI.
The subject of experiment [12] is M14.
Experiment [13] relates to MDA-N.
For experiment [14], the system named is MOLT-4.
The test system of experiment [15] is NCI-H460.
Experiment [16] concerns OVCAR-4.
Experiment [17] concerns OVCAR-5.
Experiment [18] concerns SF-268.
The subject of experiment [19] is SR.
Experiment [20] deals with UACC-257.

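In this assay, cells in 96-well plates receive the compound at five concentrations for 48 hours. Endpoints are linearly interpolated between the surrounding concentrations. At the GI50, growth is halved.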 The source made the active and inactive calls. No stated cut-off is given here; in the data, active = GI50 up to about 1.1 µM and inactive = higher. Where only a bound is given, the exact number is not on record here.

In general, GI50 refers to the concentration giving 50% growth inhibition.

On to `O=C1C(Cl)=C(N2CCN(c3ccccn3)CC2)C(=O)c2ncccc21`, for which the GI50 in [1] was 2.33 µM (inactive); in experiment [2], 1.79 µM (inactive); in [3], 2.13 µM (inactive); in experiment [4], 0.745 µM (active); in experiment [5] it was 1.84 µM (inactive); in experiment [6], 11.8 µM (inactive). Further, the GI50 in [7] is 16.7 µM (inactive); in experiment [8], 1.74 µM (inactive); in experiment [9], 11.9 µM (inactive); in experiment [10], 2.49 µM (inactive); in experiment [11], 1.61 µM (inactive); in experiment [12] it was 1.6 µM (inactive). Further, the GI50 in experiment [13] is 1.76 µM (inactive); in experiment [14], 1.38 µM (inactive); in [15], 3.05 µM (inactive); in experiment [16], 1.87 µM (inactive); in [17], 7.87 µM (inactive); in experiment [18], 2.74 µM (inactive). Besides, the GI50 in [19] was 0.757 µM (active); in experiment [20], 1.7 µM (inactive).
Take `COc1ccc2c3c1OC1C(=O)C=CC4(O)C(C2)NCC[C@@]314` (stereo not given in full): the GI50 in [1] was 2.23 µM (inactive); in [2], 1.95 µM (inactive); in experiment [3], 2.13 µM (inactive); in [4], 0.574 µM (active); in [5] it was 1.44 µM (inactive); in [6] it was 3.24 µM (inactive). Further, the GI50 in experiment [7] was 2.1 µM (inactive); in experiment [8] it was 1.73 µM (inactive); in [9] it was 2.39 µM (inactive); in experiment [10], 2.19 µM (inactive); in experiment [11], 1.91 µM (inactive); in experiment [12] it was 2.3 µM (inactive). The GI50 is 1.26 µM (inactive) in experiment [13]; 1.28 µM (inactive) in experiment [14]; 3.37 µM (inactive) in experiment [15]; 2.62 µM (inactive) in [16]; 2.46 µM (inactive) in [17]; 2.07 µM (inactive) in experiment [18]. Further, the GI50 in experiment [19] is 1.76 µM (inactive); in experiment [20] it was 1.77 µM (inactive).
With `C#C[C@]1(O)CC[C@H]2[C@@H]3CCC4=C/C(=N/OC(=O)c5cccc6cc7ccccc7nc56)CC[C@@H]4[C@H]3CC[C@@]21CC`, the GI50 in experiment [1] was > 100 µM (inactive); in [2], > 100 µM (inactive); in experiment [3], > 100 µM (inactive); in experiment [4] it was 52.2 µM (inactive); in experiment [5], 49.7 µM (inactive); in experiment [6], > 100 µM (inactive). The GI50 in experiment [7], in experiment [8], in experiment [9], in experiment [10], in experiment [11] and in [12] was > 100 µM (inactive) throughout. For the same compound, the GI50 in experiment [13], in experiment [14], in experiment [15], in experiment [16], in experiment [17] and in experiment [18] was > 100 µM (inactive) throughout. Also, the GI50 in experiment [19] is 44.4 µM (inactive); in experiment [20], > 100 µM (inactive).
Turning to `COc1cc(-c2oc(/C=N/c3ccccc3)c([N+](=O)[O-])c2-c2ccc(O)c(OC)c2)ccc1O`, the GI50 in experiment [1] is 16.1 µM (inactive); in [2], 29.6 µM (inactive); in [3], 21.8 µM (inactive); in experiment [4], 6.31 µM (inactive); in experiment [5] it was 20.3 µM (inactive); in experiment [6] it was 20.1 µM (inactive). Besides, the GI50 in experiment [7] is 15 µM (inactive); in experiment [8], 18.4 µM (inactive); in experiment [9], 33.8 µM (inactive); in [10], 39.6 µM (inactive); in experiment [11] it was 9.57 µM (inactive); in experiment [12] it was 32.1 µM (inactive). In addition, the GI50 in experiment [13] is 31 µM (inactive); in experiment [14], 12.2 µM (inactive); in [15], 16.1 µM (inactive); in [16] it was 19.1 µM (inactive); in experiment [17], 35.5 µM (inactive); in experiment [18], 19.7 µM (inactive). Besides, the results for the GI50 in [19] and in [20] were 2.86 µM (inactive) and 27 µM (inactive), respectively.
Turning to `CN(C)c1ccc(/C=C/C(=O)c2cc(C(C)(C)C)c(O)c(C(C)(C)C)c2)cc1`, the GI50 in experiment [1] is 1.73 µM (inactive); in [2] it was 3.64 µM (inactive); in experiment [3], 1.14 µM (inactive); in experiment [4], 1.01 µM (active); in experiment [5] it was 0.348 µM (active); in experiment [6], 2 µM (inactive). For the same compound, the GI50 is 1.64 µM (inactive) in experiment [7]; 1.05 µM (active) in experiment [8]; 2.54 µM (inactive) in [9]; 2.72 µM (inactive) in experiment [10]; 2.06 µM (inactive) in experiment [11]; 1.15 µM (inactive) in [12]. Moreover, the concentration for 50% growth inhibition (GI50) is 0.249 µM (active) in [13]; 3.85 µM (inactive) in experiment [14]; 0.82 µM (active) in [15]; 1.98 µM (inactive) in experiment [16]; 2.99 µM (inactive) in experiment [17]; 2.66 µM (inactive) in experiment [18]. Besides, the concentration for 50% growth inhibition (GI50) was 0.546 µM (active) in [19] and 0.321 µM (active) in [20].
For the compound `O=C(O)/C=c1/c2ccccc2n2nc3ccccc3c12`, the GI50 is 23.8 µM (inactive) in experiment [1]; 37.4 µM (inactive) in experiment [2]; 37.3 µM (inactive) in experiment [3]; 33.2 µM (inactive) in experiment [4]; 17.2 µM (inactive) in [5]; 41.6 µM (inactive) in experiment [6]. Besides, the GI50 is 24.1 µM (inactive) in experiment [7]; 24.8 µM (inactive) in experiment [8]; 31.6 µM (inactive) in experiment [9]; 23.6 µM (inactive) in experiment [10]; 21.9 µM (inactive) in [11]; 31.2 µM (inactive) in experiment [12]. The GI50 in experiment [13] was 26 µM (inactive); in [14], 23 µM (inactive); in experiment [15], 30.1 µM (inactive); in experiment [16] it was 22.8 µM (inactive); in [17] it was 57.9 µM (inactive); in experiment [18], 38.4 µM (inactive). In addition, the GI50 in experiment [19] was 16.6 µM (inactive); in experiment [20], 20.9 µM (inactive).

These data come from ChEMBL document CHEMBL1201862, “PubChem BioAssay data set” (2004).
